Experimental data from PubChem BioAssay (NCI).
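Results reflect a 48-hour exposure of cells in 96-well plates to compound at five concentrations. TGI denotes the concentration required for complete inhibition of growth.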

Assays:
Experiment in all cases: NCI tumour cell line growth inhibition, 48 h
SK-MEL-5 melanoma = test system: SK-MEL-5 melanoma
OVCAR-3 ovarian = test system: OVCAR-3 ovarian
SR leukemia = test system: SR leukemia
U251 CNS = test system: U251 CNS
SF-295 CNS = test system: SF-295 CNS
DU-145 prostate = test system: DU-145 prostate
RXF 393 renal = test system: RXF 393 renal
HCT-116 colon = test system: HCT-116 colon
PC-3 prostate = test system: PC-3 prostate
RPMI-8226 leukemia = test system: RPMI-8226 leukemia
786-0 renal = test system: 786-0 renal
K-562 leukemia = test system: K-562 leukemia
SF-539 CNS = test system: SF-539 CNS
HCT-15 colon = test system: HCT-15 colon
MOLT-4 leukemia = test system: MOLT-4 leukemia
NCI-H460 lung = test system: NCI-H460 lung
SK-MEL-28 melanoma = test system: SK-MEL-28 melanoma
SK-OV-3 ovarian = test system: SK-OV-3 ovarian
MDA-N = test system: MDA-N
NCI-H522 lung = test system: NCI-H522 lung

SMILES	TGI (SK-MEL-5 melanoma) [µM]	TGI (OVCAR-3 ovarian) [µM]	TGI (SR leukemia) [µM]	TGI (U251 CNS) [µM]	TGI (SF-295 CNS) [µM]	TGI (DU-145 prostate) [µM]	TGI (RXF 393 renal) [µM]	TGI (HCT-116 colon) [µM]	TGI (PC-3 prostate) [µM]	TGI (RPMI-8226 leukemia) [µM]	TGI (786-0 renal) [µM]	TGI (K-562 leukemia) [µM]	TGI (SF-539 CNS) [µM]	TGI (HCT-15 colon) [µM]	TGI (MOLT-4 leukemia) [µM]	TGI (NCI-H460 lung) [µM]	TGI (SK-MEL-28 melanoma) [µM]	TGI (SK-OV-3 ovarian) [µM]	TGI (MDA-N) [µM]	TGI (NCI-H522 lung) [µM]
CCOC(=O)C[n+]1cccc(C2(c3cc4ccccc4[nH]3)OCCO2)c1	> 100	> 100	> 100	> 100	> 100	> 100	> 100	> 100	> 100	> 100	> 100	> 100	> 100	> 100	> 100	> 100	> 100	> 100	–	–
O=c1[nH]c2ccccc2c(O)c1/C=N/C(=S)NCc1ccccc1	> 100	> 100	–	> 100	> 100	> 100	–	> 100	> 100	–	> 100	–	> 100	–	> 100	–	> 100	> 100	> 100	–
C=C1C(=O)O[C@H]2[C@H]3O[C@@H](C[C@@H]12)[C@@]1(C)CC[C@H](O1)[C@H](C)CCC[C@H]3C	2.72	2.37	0.448	2.82	17.4	2.86	5.24	2.49	3.01	2.35	2.63	3.59	–	3.55	–	3.7	3.1	19.5	–	2.84
CC(=O)OC(Cc1ccc2ccccc2n1)(C(F)(F)F)C(F)(F)F	1.38	1.99	–	18.2	10.9	17.9	2.84	4.24	11.7	–	6.37	> 100	7.71	7.46	16	18.5	4.03	33	3.54	2.16
CCCCCCCCCCCCc1ccc(S(=O)(=O)O)cc1.[Zn+2]	> 100	> 100	–	> 100	> 100	> 100	> 100	> 100	> 100	> 100	> 100	> 100	> 100	> 100	> 100	> 100	> 100	> 100	> 100	–
O=C1C=C2SC3C[C@@]24CC1[N+]1=c2c4c(c(O)c4c2=C(C=N4)CC1)N3	3.44	2.51	–	3.33	11.6	–	3.84	3.35	–	7.38	–	8.26	3.34	13.7	4.11	9.03	4.09	7	–	2.99
CCOC(=O)C(CC(C)C)NC(=O)CSc1nnc(COc2ccc(Cl)cc2)n1-c1ccccc1 (stereo unspecified)	32.6	24.7	15.6	33.4	–	32.4	34.3	28	30.8	54.5	28.6	> 100	42.3	37.1	> 100	29.3	33.1	59.8	–	–
O=C(CCC(=O)CC(O)(C(F)(F)F)C(F)(F)F)CC(O)(C(F)(F)F)C(F)(F)F	> 100	–	> 100	> 100	> 100	> 100	> 100	> 100	–	97.8	> 100	> 100	> 100	> 100	> 100	–	> 100	> 100	–	–
CCn1c(SC(C)C(=O)c2c(C)n(C)n(-c3ccccc3)c2=O)nc2ccccc2c1=O (stereo unspecified)	> 100	> 100	> 100	> 100	> 100	–	–	> 100	–	> 100	> 100	–	> 100	> 100	> 100	> 100	> 100	> 100	–	> 100
CNC(=S)N/N=C(\C(=N/NC(=S)NC)c1ccccn1)c1ccccn1	> 67.6	–	–	> 100	> 83.2	> 100	41.1	> 100	> 100	> 100	> 84.8	> 100	> 100	> 100	–	> 100	> 100	> 100	> 100	72.8
CC1(C)C(CCO)CC1n1cc(I)c(=O)[nH]c1=O (stereo unspecified)	> 100	> 100	–	> 100	> 100	> 100	> 100	> 100	> 100	> 100	> 100	> 100	> 100	> 100	> 100	–	> 100	> 100	> 100	–
COc1ccc2c(c1)C/C(=C\c1cccc3ccccc13)C2=O	> 100	50.4	> 100	81.3	–	–	22.5	–	> 100	> 100	77.7	> 100	44.8	> 100	> 100	> 100	> 100	> 100	–	–
CCO[C@@]1(COCc2ccccc2)OC(=O)C[C@@H]1N1C(=O)OC[C@@H]1c1ccccc1	> 100	> 100	–	> 100	> 100	> 100	> 100	> 100	> 100	> 100	> 100	> 100	> 100	> 100	> 100	> 100	> 100	> 100	> 100	> 100
O=C(c1ccccc1)n1cc(-c2ccccc2)c2c(=O)[nH]cnc21	> 100	> 100	–	> 100	> 100	> 100	> 100	> 100	> 100	> 100	> 100	–	> 100	> 100	> 100	–	> 100	> 100	> 100	> 100
